# Assay: Hygroscopicity: water content of crystals after storage in a desiccator (e.g. Karl Fischer method)
# Format: physicochemical
# Details: after 24 hours inside a dessicator at 60°C and a humidity of 100%
# Description: Aripiprazole Anhydride Crystals B of the present invention have low hygroscopicity. For example, Aripiprazole Anhydride Crystals B of the present invention maintain a water content of 0.4% or less after 24 hours inside a dessicator set at a temperature of 60°C and a humidity of 100%.
# Well-known methods of measuring water content can be used as long as they are methods commonly used for measuring the water content of crystals. For example, a method such as the Karl Fischer method can be used.
compound,measurement,value
"O=C1CCc2ccc(OCCCCN3CCN(c4cccc(Cl)c4Cl)CC3)cc2N1 [Aripiprazole Anhydride Crystals B, aripiprazole]",water content,≤ 0.4%

# Source: patent EP1441698B1, “FLASHMELT ORAL DOSAGE FORMULATION” (Otsuka Pharmaceutical Co., Ltd., priority 2001, dated 2003)
